Entries after “also recorded” stand apart in the source; their conditions may differ.
Columns and labels:
Assay type in all cases: biochemical
[1] = biological target: T1, codon-optimized nanoKAZ domain protein (Oplophorus gracilirostris, UniProt Q9GV45, A31E/A60N/A81I/F95D/I117V/K70R/L54V/L99Q/M102K/N193R/P142E/Q151K/Q38R/Q45L/V71I/Y165I); assay: Substrate specificity and luminescence pattern of nanoKAZ secreted into culture medium; conditions: for Relative luminescence activity integrated (1 min) / Relative maximum luminescence intensity (Imax): culture medium with secreted nanoKAZ as enzyme, coelenterazine = 1.0; for luminescence pattern: FIG. 4
T1 construct: expressed in transfected cells; host or cells: CHO-K1, HeLa or COS-1 cells transfected with pcDNA3-nanoKAZ or pcDNA3-GLsp-nanoKAZ
Protocol: The luminescence reaction was started by addition of 5 μL of the enzyme solution for assay obtained in EXAMPLE 3 to 100 μL of 50 mM Tris-HCl (pH 7.6)-10 mM EDTA (Wako Pure Chemical Industries, Ltd.) containing 0.5 μg of coelenterazine (manufactured by JNC Corp.). The luminescence activity was measured for 60 seconds with a luminometer (manufactured by Atto Co.: AB2200). The maximum intensity of luminescence (Imax) and the luminescence activity integrated for 60 seconds were represented as relative light units (rlu). On the other hand, the luminescence activity of firefly luciferase was used as an internal standard to confirm the efficiency of transfection. Five microliters of the enzyme solution for assay obtained in EXAMPLE 3 was added to 100 μL of the enzyme assay solution (manufactured by Promega Corp.) to start the luminescence reaction. The luminescence activity was measured with a luminometer (manufactured by Atto Co.: AB2200) by integration of luminescence for 10 seconds, which was shown as relative light units (rlu). […] While the transfection efficiencies vary in depending upon cell types, the transfection efficiencies of pcDNA3-nanoKAZ and pcDNA3-GLsp-nanoKAZ are almost the same. The results obtained by measuring the luminescence activity of CHO-K1 cells, HeLa cells and COS-1 cells in culture medium and cells are shown in TABLE 4. Evidently, pcDNA3-nanoKAZ without a signal peptide sequence for secretion was secreted comparably or more efficiently than pcDNA3-GLsp-nanoKAZ.
Coelenterazine analogues used in the substrate specificity experiments were synthesized by the methods described in the respective papers. More specifically, bis-coelenterazine, furimazine and C2-coelenterazine analogue were synthesized by the methods described in Nakamura et al. (1997) Tetrahedron Lett. 38:6405-6406, Hall et al. (2012) ACS Chem. Biol. […] and Inouye et al. (2010) Anal. Biochem. 407: 247-252, respectively. Using as an enzyme solution for coelenterazine or its analogues the culture medium, into which nanoKAZ was secreted as described in EXAMPLE 4, the luminescence activity was measured. Among coelenterazine analogues, the relative maximum intensity of luminescence for h-, bis-, 3me- and 3meo-coelenterazines was at least 10-fold higher and the relative luminescence activity integrated for 1 minute of h- and bis-coelenterazines was at least 10-fold higher, than the others. These luminescence patterns are illustrated in FIG. 4.

[2] = biological target: T2, purified codon-optimized nanoKAZ domain protein (Oplophorus gracilirostris, UniProt Q9GV45, A31E/A60N/A81I/F95D/I117V/K70R/L54V/L99Q/M102K/N193R/P142E/Q151K/Q38R/Q45L/V71I/Y165I); assay: Substrate specificity of purified nanoKAZ; conditions: purified nanoKAZ 0.03 μg, 1 μg substrate, coelenterazine = 1.0
T2 construct: histidine tag (6 His) (N, cleaved yes); ZZ domain (N, cleaved yes); made in house; host or cells: Escherichia coli BL21
Protocol: The luminescence reaction was started by addition of 5 μl (0.03 μg) of the purified enzyme solution obtained in EXAMPLE 7 to 100 μl of 50 mM Tris-HCl (pH 7.6)-10 mM EDTA (Wako Pure Chemical Industries, Ltd.) containing 1 μg of coelenterazine (manufactured by JNC) or its analogues. The luminescence activity was measured with a luminometer (manufactured by Atto Co.: AB2200) for 60 seconds. The maximum intensity of luminescence (Imax) and the level integrated for 60 seconds were represented as relative light units (rlu).
The luminescence activity of the purified codon-optimized nanoKAZ domain was measured in accordance with the method described in EXAMPLE 8. […] The results obtained using the purified codon-optimized nanoKAZ as the enzyme solution are in good agreement with the results found by using the culture cell solution as the enzyme solution.

[3] = biological target: T3, purified nanoKAZ (Oplophorus gracilirostris, UniProt Q9GV45, A31E/A60N/A81I/F95D/I117V/K70R/L54V/L99Q/M102K/N193R/P142E/Q151K/Q38R/Q45L/V71I/Y165I); assay: Emission spectra by purified nanoKAZ using coelenterazine analogues; conditions: purified nanoKAZ 3 μg, substrate 5 μg, 22-25° C.
T3 construct: histidine tag (6 His) (N, cleaved yes); ZZ domain (N, cleaved yes); made in house; host or cells: Escherichia coli BL21
Protocol: The luminescence reaction was started by addition of a solution of substrate coelenterazine (5 μg/5 μL) in ethanol to a solution of nanoKAZ (3 μg) in 30 mM Tris-HCl (pH 7.6) containing 500 μl of 10 mM EDTA. The luminescence spectra were measured in a quartz cell with an optical path length of 10 mm, with a fluorescence spectrophotometer (manufactured by JASCO Corp., FP-6500) with the excitation light source turned off to correct for the spectra. The measurement conditions used were as follows: band width: 20 nm, response: 0.5 second, scan speed: 2000 nm/min at 22-25° C. The maximum intensity of luminescence (λmax, nm) and half bandwidth (nm) were determined from the luminescence spectra measured, which are summarized in TABLE 8.

T1 sequence (Q9GV45 28-196 with tags or gaps with the stated changes limits assumed): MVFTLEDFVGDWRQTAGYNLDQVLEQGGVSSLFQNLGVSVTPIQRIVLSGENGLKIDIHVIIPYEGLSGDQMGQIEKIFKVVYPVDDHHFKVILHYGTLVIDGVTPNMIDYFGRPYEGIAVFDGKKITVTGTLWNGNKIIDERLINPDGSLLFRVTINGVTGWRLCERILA
T2 sequence (Q9GV45 other isoform, or with tags, fused parts or gaps with the stated changes): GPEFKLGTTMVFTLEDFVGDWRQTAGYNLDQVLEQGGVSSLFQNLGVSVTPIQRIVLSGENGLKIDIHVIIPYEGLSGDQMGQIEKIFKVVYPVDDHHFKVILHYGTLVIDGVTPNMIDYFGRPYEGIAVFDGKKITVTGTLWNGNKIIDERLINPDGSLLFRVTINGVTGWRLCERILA
T3 sequence (Q9GV45 other isoform, or with tags, fused parts or gaps with the stated changes): as above

Compound | Relative luminescence activity integrated (1 min) [1] | Relative maximum luminescence intensity (Imax) [1] | Maximum luminescence intensity (Imax) [2] | Relative luminescence activity integrated (1 min) [2] | Half bandwidth FWHM [3] | Maximum wavelength λmax [3] | luminescence pattern [1] | activity relative to furimazine ([1]; higher than that of furimazine)
Cc1ccc(Cc2nc3c(Cc4ccccc4)[nH]c(-c4ccc(O)cc4)cn-3c2=O)cc1 [me-Coelenterazine] | 3.0 | 5.2 | 4.2 | 1.3 | 75 nm | 460 nm |  | 
αmeh-Coelenterazine | 0.1 | 0.1 | 0.1 | 0.1 | 73 nm | 462 nm |  | 
i-Coelenterazine | 2.0 | 3.3 | 2.9 | 0.8 | 73 nm | 457 nm |  | 
Oc1ccc(Cc2nc3c(Cc4ccccc4)nc(-c4ccc(O)cc4)cn3c2O)cc1 [Coelenterazine (CTZ), Coelenterazine] | 1.0 | 1.0 | 1.0 | 1.0 | 73 nm | 457 nm |  | 
O=c1c(Cc2ccc(C(F)(F)F)cc2)nc2c(Cc3ccccc3)[nH]c(-c3ccc(O)cc3)cn1-2 [cf3-Coelenterazine] | 2.4 | 5.2 | 4.7 | 1.4 | 71 nm | 454 nm |  | 
Cc1cccc(Cc2nc3c(Cc4ccccc4)[nH]c(-c4ccc(O)cc4)cn-3c2=O)c1 [3me-Coelenterazine] | 7.9 | 11.5 | 10.3 | 4.2 | 73 nm | 458 nm |  | 
COc1cccc(Cc2nc3c(Cc4ccccc4)[nH]c(-c4ccc(O)cc4)cn-3c2=O)c1 [3meo-Coelenterazine] | 8.2 | 11.6 | 11.1 | 6.6 | 71 nm | 458 nm |  | 
O=c1c(Cc2cccc(O)c2)nc2c(Cc3ccccc3)[nH]c(-c3ccc(O)cc3)cn1-2 [3iso-Coelenterazine] | 1.4 | 1.5 | 1.1 | 0.9 | 75 nm | 460 nm | did not show the rapid-decay luminescence patterns | 
n-Coelenterazine | 3.3 | 4.9 | 4.1 | 1.2 | 71 nm | 454 nm |  | 
Oc1ccc(-c2cn3c(O)c(Cc4ccccc4)nc3c(Cc3ccccc3)n2)cc1 [h-Coelenterazine] | 11.1 | 17.1 | 19.7 | 12.5 | 71 nm | 455 nm |  | 
O=c1c(Cc2ccco2)nc2c(Cc3ccccc3)[nH]c(-c3ccccc3)cn1-2 [Furimazine] | 5.3 | 4.8 | 6.8 | 5.5 | 73 nm | 452 nm | did not show the rapid-decay luminescence patterns | 
COc1ccc(Cc2nc3c(Cc4ccccc4)[nH]c(-c4ccc(O)cc4)cn-3c2=O)cc1 [meo-Coelenterazine] | 6.3 | 8.9 | 7.7 | 3.4 | 73 nm | 458 nm |  | 
bis-Coelenterazine | 11.5 | 10.8 | 13.5 | 10.1 | 73 nm | 453 nm | did not show the rapid-decay luminescence patterns; also recorded: continuous emission without decay of luminescence | at least 2 fold
et-Coelenterazine | 2.8 | 4.4 | 2.4 | 0.5 | 75 nm | 458 nm |  | 

— patent publication US10006009B2, “Codon-optimized gene for mutated shrimp luciferase and method for use thereof” (JNC CORPORATION, priority 2013, dated 2018)
